For seven compounds, EC50 results are on record in patent US7381722B2, “Tetracyclic amino and carboxamido compounds and methods of use thereof” (Inotek Pharmaceuticals Corporation, priority 2005, dated 2008).

The assay deals with T1, PARS (Mus musculus, UniProt P11103).
T1 construct: endogenous in cells; host or cells: Raw murine macrophages
Nature of the assay: Cell protection assay: PARS activity in peroxynitrite-treated Raw murine macrophages. The settings on record: compound 15 min before peroxynitrite (750 μM) for 15 min, PARS activity by 3H-NAD incorporation, EC50 from dose-response curve. The assay is classed as cell-based. The method, then:
Raw murine macrophages were treated with an illustrative Tetracyclic Amino Compound or Tetracyclic Carboxamido Compound for 15 minutes prior to the addition of peroxynitrite (750 μM) for a further 15 minutes. For the measurement of PARS activity, the media were removed and replaced with 0.5 ml HEPES (pH 7.5) containing 0.01% digitonin and ^3H-NAD (0.5 μCi ml^−1, final concentration of NAD^+ in buffer is 20 nM/L) for 20 minutes. The cells were then scraped from the wells and placed in Eppendorf tubes containing 200 μl of 50% (w/v) ice-cold trichloroacetic acid (TCA). The tubes were then placed at 4° C. After 4 hr the tubes were centrifuged at 1800 g for 10 minutes and the supernatant removed. The pellets were washed twice with 500 μl ice-cold 5% TCA. The pellets were solubilized in 250 μl NaOH (0.1 M) containing 2% SDS overnight at 37° C. and the PARS activity was then determined by measuring the radioactivity incorporated using a Wallac scintillation counter. The solubilized protein (250 μl) was mixed with 5 ml of scintillant (ScintiSafe Plus, Fisher Scientific) before being counted for 10 minutes. The EC50 value was calculated from a dose-response curve.

T1 sequence (P11103 whole entry): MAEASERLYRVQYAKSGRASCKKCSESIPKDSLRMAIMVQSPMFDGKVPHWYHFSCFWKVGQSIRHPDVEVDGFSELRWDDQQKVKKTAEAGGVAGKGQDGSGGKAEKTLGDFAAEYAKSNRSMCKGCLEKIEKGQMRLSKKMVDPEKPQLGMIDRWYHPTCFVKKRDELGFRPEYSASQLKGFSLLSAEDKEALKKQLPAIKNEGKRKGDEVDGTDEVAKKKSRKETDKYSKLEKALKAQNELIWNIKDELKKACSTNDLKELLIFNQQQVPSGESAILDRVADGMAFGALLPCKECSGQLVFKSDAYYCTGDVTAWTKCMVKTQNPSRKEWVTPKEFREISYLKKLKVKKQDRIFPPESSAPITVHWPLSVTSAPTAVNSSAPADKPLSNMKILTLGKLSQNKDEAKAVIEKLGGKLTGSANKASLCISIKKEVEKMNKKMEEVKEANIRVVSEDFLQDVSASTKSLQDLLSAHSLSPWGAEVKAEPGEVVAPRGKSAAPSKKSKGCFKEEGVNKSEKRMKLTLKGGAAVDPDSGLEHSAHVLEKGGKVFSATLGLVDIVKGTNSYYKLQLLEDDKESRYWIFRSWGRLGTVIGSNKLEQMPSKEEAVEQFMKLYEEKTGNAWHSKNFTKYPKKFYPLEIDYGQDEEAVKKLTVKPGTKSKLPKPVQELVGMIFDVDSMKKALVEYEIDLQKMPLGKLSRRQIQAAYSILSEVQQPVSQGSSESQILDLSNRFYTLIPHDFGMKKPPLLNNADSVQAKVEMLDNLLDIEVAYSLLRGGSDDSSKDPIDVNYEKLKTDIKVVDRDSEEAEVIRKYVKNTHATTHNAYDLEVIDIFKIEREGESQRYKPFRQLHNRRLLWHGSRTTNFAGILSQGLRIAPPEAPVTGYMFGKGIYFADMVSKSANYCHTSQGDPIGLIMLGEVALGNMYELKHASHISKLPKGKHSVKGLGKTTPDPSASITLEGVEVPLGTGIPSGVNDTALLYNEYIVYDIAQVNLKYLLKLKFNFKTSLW

`CN(C)CCCNC(=O)c1ccc2c(c1)Cc1c-2[nH]c(=O)c2ccccc12` [Compound 13b]: the response was half-maximal at 900 nM (EC50). That is a sub-micromolar value.

On to `O=C(NCCN1CCOCC1)c1ccc2c(c1)Cc1c-2[nH]c(=O)c2ccccc12` [Compound 14a], for which a half-maximal effect (EC50) was put at 1100 nM.

With `O=C(NCCCN1CCOCC1)c1ccc2c(c1)Cc1c-2[nH]c(=O)c2ccccc12` [Compound 14b], the EC50 was 1100 nM.

Regarding `CN(C)CCNC(=O)c1cccc2c1Cc1c-2[nH]c(=O)c2ccccc12` [Compound 15a], the half-maximal effective concentration (EC50) is more than 1500 nM.

With `CN(C)CCCNC(=O)c1cccc2c1Cc1c-2[nH]c(=O)c2ccccc12` [Compound 15b], the EC50 was more than 1500 nM.

`O=C(NCCN1CCOCC1)c1cccc2c1Cc1c-2[nH]c(=O)c2ccccc12` [Compound 16a] came in with an EC50 of more than 1500 nM.

The compound `O=C(NCCCN1CCOCC1)c1cccc2c1Cc1c-2[nH]c(=O)c2ccccc12` [Compound 16b] registered an EC50 of more than 1500 nM.

Broadly, the EC50 is the concentration at which the effect is half-maximal.
